Reference: ChEMBL document CHEMBL3632519, “Withanolides and Sucrose Esters from Physalis neomexicana” (J Nat Prod, 2015)

Columns and labels:
[1] = test system: MDA-MB-231; test: Cytotoxicity against human MDA-MB-231 cells by MTT assay; format: functional, cell-based
[2] = test system: MCF7; test: Cytotoxicity against human MCF7 cells by MTT assay; format: functional, cell-based

CC1=C(C)C(=O)O[C@@H]([C@@H](C)[C@H]2CC[C@H]3[C@@H]4C[C@H]5O[C@]56[C@@H](O)C=CC(=O)[C@]6(CO)[C@H]4CC[C@]23C)C1 [WITHALONGOLIDE B]
IC50 [1]: 0.2 µM
IC50 [2]: 0.8 µM

CC1=C(CO)C(=O)O[C@@H]([C@@H](C)[C@H]2CC[C@H]3[C@@H]4C[C@H]5O[C@]56[C@@H](O)C=CC(=O)[C@]6(C)[C@H]4CC[C@]23C)C1 [WITHAFERIN A]
IC50 [1]: 0.5 µM

CC(=O)O[C@H]1C[C@H]([C@@](C)(O)[C@@H]2C[C@H](C)[C@@H](C)C(=O)O2)[C@@]2(C)CC[C@H]3[C@@H](C[C@H]4O[C@]45CC=CC(=O)[C@]35C)[C@@]12O
IC50 [1]: 1.7 µM
IC50 [2]: 6.3 µM
